These results are taken from ChEMBL document CHEMBL1201862, “PubChem BioAssay data set” (2004).

Common to all, as to test: NCI-60 cell line screen, 48 h
For assay [1], the system named is NCI-H226.
Assay [2] concerns A549.
The subject of assay [3] is KM12.
Assay [4] concerns MOLT-4.
The subject of assay [5] is SW-620.
Assay [6] relates to SR.
The test system of assay [7] is DU-145.
For assay [8], the system named is HCT-116.
Assay [9] has as its system A498.
Assay [10] concerns CCRF-CEM.
Assay [11] concerns SF-539.
Assay [12] relates to MCF7.
Assay [13] relates to UACC-257.
In assay [14] the test system is HT-29.
For assay [15], the system named is BT-549.
The test system of assay [16] is UACC-62.
Assay [17] concerns SK-MEL-5.
Assay [18] concerns NCI/ADR-RES.
Assay [19] has as its system PC-3.
Assay [20] has as its system RPMI-8226.

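Assay format: 96-well plates, 48-hour exposure. GI50: concentration for 50% inhibition of growth.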 The source made the active and inactive calls. No stated cut-off is given here; in the data, active = GI50 up to about 1.1 µM and inactive = higher.

For `O=C1c2ccccc2S(=O)(=O)c2cc(-c3nn[nH]n3)ccc21` [DOXANTRAZOLE], the GI50 in assay [1], in assay [2], in assay [3], in assay [4], in assay [5] and in assay [6] was > 100 µM (inactive) in each case. For the same molecule, the GI50 in assay [7], in assay [8], in [9], in [10], in [11] and in [12] was > 100 µM (inactive) throughout. Besides, the GI50 in assay [13], in assay [14], in assay [15], in [16], in assay [17] and in assay [18] was > 100 µM (inactive) throughout. Moreover, the GI50 in [19] was > 100 µM (inactive).

On to `Oc1cccc2c(Cl)ccnc12`, for which the GI50 in [1] was 7.45 µM (inactive); in assay [2], 3.44 µM (inactive); in [3], 4.93 µM (inactive); in [4], 0.376 µM (active); in [5], 0.778 µM (active); in assay [6], 0.243 µM (active). Besides, the GI50 in [7] is 5.51 µM (inactive); in assay [20], 0.499 µM (active); in [8], 0.279 µM (active); in [9], 15.8 µM (inactive); in assay [10], 0.266 µM (active); in assay [11] it was 2.11 µM (inactive). The GI50 in assay [12] was 1.11 µM (active); in assay [13], 3.1 µM (inactive); in assay [14], 9.51 µM (inactive); in assay [15], 13.7 µM (inactive); in assay [16], 0.362 µM (active); in [17], 1.22 µM (inactive). In addition, the GI50 was 2.3 µM (inactive) in assay [18] and 1.67 µM (inactive) in [19].

Turning to `COC(=O)C1(NC(=O)C(CC(=O)OCc2ccccc2)NC(=O)OCc2ccccc2)CCCCCCC1` (stereo not drawn), the GI50 in assay [1] is 40.3 µM (inactive); in assay [2], 32.1 µM (inactive); in [3], 48.3 µM (inactive); in assay [4], 4.69 µM (inactive); in assay [5] it was 31.3 µM (inactive); in assay [6] it was 5.35 µM (inactive). The GI50 in assay [7] is > 100 µM (inactive); in assay [20], 5.56 µM (inactive); in assay [8], 27.9 µM (inactive); in assay [9], 13.6 µM (inactive); in [11], 49.7 µM (inactive); in assay [12], 31.8 µM (inactive). Further, the GI50 in [14] was 24.6 µM (inactive); in assay [15] it was 23.9 µM (inactive); in assay [16], 24.3 µM (inactive); in assay [17], 13.8 µM (inactive); in assay [18], 19.3 µM (inactive); in assay [19] it was 7.96 µM (inactive).

Regarding `O=c1c(C(c2ccc3ccccc3c2)c2c(O)oc3cc(O)ccc3c2=O)c(O)oc2cc(O)ccc12`, the GI50 was > 100 µM (inactive) in [1]; > 100 µM (inactive) in assay [2]; 30.6 µM (inactive) in [3]; 44.4 µM (inactive) in assay [4]; > 100 µM (inactive) in assay [5]; 26.6 µM (inactive) in assay [6]. In addition, the GI50 in [7] was > 100 µM (inactive); in assay [20], 27.5 µM (inactive); in assay [8], > 100 µM (inactive); in assay [9], > 100 µM (inactive); in [10], 43.2 µM (inactive); in assay [11] it was 84.1 µM (inactive). In addition, the GI50 was 43.2 µM (inactive) in assay [12]; > 100 µM (inactive) in assay [13]; > 100 µM (inactive) in assay [14]; 54.2 µM (inactive) in [15]; > 100 µM (inactive) in [16]; > 100 µM (inactive) in assay [17]. The GI50 in [18] and in [19] was > 100 µM (inactive) throughout.

For the molecule `O=C(/N=N/c1ccc(Br)cc1)NNc1ccc(Br)cc1`, the GI50 in assay [1] was 20.5 µM (inactive); in assay [3], 17.7 µM (inactive); in assay [4], 11.8 µM (inactive); in [6], 28.6 µM (inactive); in [7] it was 40.8 µM (inactive); in [20], 23.8 µM (inactive). Besides, the GI50 in assay [8] is 17.5 µM (inactive); in [9] it was 44 µM (inactive); in assay [10] it was 0.132 µM (active); in assay [12] it was 18.2 µM (inactive); in assay [14], 17.4 µM (inactive); in assay [15] it was > 10 µM (inactive). Moreover, the GI50 in assay [16] is 14.1 µM (inactive); in assay [17], 13.9 µM (inactive); in assay [18], 20 µM (inactive); in assay [19], 15.5 µM (inactive).

`CN1CCC2(CC1)C(=O)N(N1CCCCCC1)C(=O)N2c1ccccc1`: the GI50 in [1], in assay [2], in assay [3], in assay [4], in [5] and in assay [6] was > 100 µM (inactive) in each case. Besides, the GI50 in assay [7] is > 100 µM (inactive); in assay [20] it was > 100 µM (inactive); in [8] it was 18.2 µM (inactive); in [9], 34.7 µM (inactive); in [10], > 100 µM (inactive); in [11] it was > 100 µM (inactive). Also, the GI50 in assay [12] was > 100 µM (inactive); in assay [13], > 100 µM (inactive); in assay [14], 60.5 µM (inactive); in assay [15], > 100 µM (inactive); in [16] it was 96.6 µM (inactive); in assay [17], > 100 µM (inactive). In addition, the GI50 was > 100 µM (inactive) in assay [18] and 77.8 µM (inactive) in assay [19].

Take `O=c1c(-c2ccccc2)c(SCCCN2CCN(c3cccc(Cl)c3)CC2)n(-c2ccccc2)c(=S)n1-c1ccccc1`: the GI50 in assay [1] was > 100 µM (inactive); in [3], 46.5 µM (inactive); in [4] it was > 100 µM (inactive); in [5], > 100 µM (inactive); in assay [6], 29 µM (inactive); in [7] it was > 100 µM (inactive). Further, the GI50 in [20], in assay [9], in assay [10], in [11], in [12] and in assay [13] was > 100 µM (inactive) throughout. Besides, the GI50 in assay [14] is 80.9 µM (inactive); in [15] it was > 100 µM (inactive); in [16], > 100 µM (inactive); in assay [17], > 100 µM (inactive); in assay [18] it was > 100 µM (inactive); in assay [19] it was > 100 µM (inactive).

On to `Clc1ccc(-c2nn3c(COc4ccc(OCc5nnc6sc(-c7ccc(Cl)cc7)nn56)c(Cl)c4)nnc3s2)cc1`, for which the GI50 in assay [1] was 74.5 µM (inactive); in assay [2], 24.4 µM (inactive); in assay [3], 29.4 µM (inactive); in assay [4], 20.5 µM (inactive); in [5], 24 µM (inactive); in assay [6] it was 19.1 µM (inactive). Moreover, the GI50 in assay [7] is 37.5 µM (inactive); in assay [20], 24.5 µM (inactive); in [8] it was 24.8 µM (inactive); in [9], 32.7 µM (inactive); in assay [11], 24 µM (inactive); in [12] it was 35.7 µM (inactive). The GI50 in [13] was 44.7 µM (inactive); in assay [14], 17.5 µM (inactive); in [15], 18.9 µM (inactive); in [16], > 100 µM (inactive); in assay [17], 20.9 µM (inactive); in assay [18], 27.7 µM (inactive). The GI50 in assay [19] is 31 µM (inactive).

Consider `O=C(/C=C/c1ccc2c(c1)OCO2)NCCc1ccco1`, for which the GI50 was 90.2 µM (inactive) in assay [1]; 89.5 µM (inactive) in assay [2]; > 100 µM (inactive) in assay [3]; 48.9 µM (inactive) in assay [4]; > 100 µM (inactive) in [5]; 18.5 µM (inactive) in assay [6]. Besides, the GI50 in [7] was > 100 µM (inactive); in assay [20], 21.8 µM (inactive); in [8], 68.9 µM (inactive); in assay [10] it was 59.8 µM (inactive); in assay [11], > 100 µM (inactive); in assay [12], 49.4 µM (inactive). The GI50 in assay [13] was 49.8 µM (inactive); in [14], > 100 µM (inactive); in assay [15], > 100 µM (inactive); in assay [16], 44.2 µM (inactive); in assay [17] it was 23.7 µM (inactive); in [18], 57.3 µM (inactive). Besides, the GI50 in assay [19] is 50.8 µM (inactive).

With `CCOC(=O)C(NC(=O)c1ccccc1)(Nc1ccc(S(=O)(=O)Nc2cc(C)on2)cc1)C(F)(F)F` (stereo not drawn), the GI50 in [1], in [2], in assay [3], in assay [4], in assay [5] and in assay [6] was > 100 µM (inactive) in each case. The GI50 in assay [7], in assay [20], in assay [8], in assay [10], in assay [11] and in [12] was > 100 µM (inactive) each time. The GI50 in [13] was > 10 µM (inactive); in [14], > 100 µM (inactive); in assay [15], > 100 µM (inactive); in assay [16] it was > 100 µM (inactive); in assay [17] it was > 100 µM (inactive); in assay [18] it was > 100 µM (inactive). Moreover, the GI50 in assay [19] is > 100 µM (inactive).
